Source: patent US20230085307A1, “PYRIDAZINONE COMPOUND AND HERBICIDE” (NISSAN CHEMICAL CORPORATION, priority 2019, published 2023)

What was measured:
Chinese sprangletop = assay: Test Example 3: herbicidal effect by foliage application, Wagner pot (Table 18, symbol D); assay type: in vivo, chinese sprangletop (Leptochloa chinensis); conditions: amount of applied herbicide 320 g/ha
How it was run: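 Plants were sown in alluvial soil held under 0.1–0.5 cm standing water and grown 14 days in a greenhouse at 25–30 °C. An emulsifiable formulation, water-diluted to the set dose, was then sprayed onto the foliage, and effects were scored three weeks later using previously defined criteria.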

Italian ryegrass = assay: Test Example 5: herbicidal effect by foliage application, plastic box (Table 20, symbol K); assay type: in vivo, Italian ryegrass (Lolium multiflorum); conditions: foliage application, 320 g/ha, three weeks after application
How it was run: (§1)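 Plants sown in sterilized diluvial soil and grown 14 days in a greenhouse at 25° C to 30° C, then sprayed on the foliage with the compound's emulsion diluted in water to a predetermined herbicide amount. Injury to weeds and crops scored three weeks after application on a visual rating scale.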

Japanese bulrush = assay: Test Example 2: herbicidal activity, application during weed generation under submerged conditions (Table 17, symbol B); assay type: in vivo, Japanese bulrush (Schoenoplectus juncoides); conditions: AAH 320 g/ha; application during weed generation, submerged conditions
How it was run: (§2)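 Alluvial soil in Wagner pots was flooded to 4 cm depth and sown with the three weeds together; pots were kept in a greenhouse at 25° C. to 30° C. At the one to two leaf stage, an emulsion formulation diluted in water to a set rate went onto the water surface; scored three weeks later.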

redroot pigweed = assay: Test Example 4: herbicidal effect by soil treatment (Table 19, symbol N); assay type: in vivo, redroot pigweed (Amaranthus retroflexus); conditions: amount of applied herbicide 320 g/ha
How it was run: (§3)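 Seeds were sown in sterilized diluvial soil and covered with about 1.5 cm of soil. An emulsion formulation diluted with water to a predetermined herbicide amount was sprayed evenly onto the soil surface. Plants grew in a greenhouse at 25° C. to 30° C., and the effect was scored three weeks after application using criteria from an earlier test.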

persian speedwell = assay: Test Example 5: herbicidal effect by foliage application, plastic box (Table 20, symbol R); assay type: in vivo, Persian speedwell (Veronica persica); conditions: foliage application, 320 g/ha, three weeks after application
How it was run: as §1

barnyard grass = assay: Test Example 4: herbicidal effect by soil treatment (Table 19, symbol H); assay type: in vivo, barnyard grass (Echinochloa crus-galli); conditions: amount of applied herbicide 320 g/ha
How it was run: as §3

lambsquarters [1] = assay: Test Example 5: herbicidal effect by foliage application, plastic box (Table 20, symbol O); assay type: in vivo, lambsquarters (Chenopodium album); conditions: foliage application, 320 g/ha, three weeks after application
How it was run: as §1

blackgrass = assay: Test Example 4: herbicidal effect by soil treatment (Table 19, symbol J); assay type: in vivo, blackgrass (Alopecurus myosuroides); conditions: amount of applied herbicide 320 g/ha
How it was run: as §3

oval-leafed pondweed [2] = assay: Test Example 1: herbicidal activity, application before weed generation under submerged conditions (Table 16, symbol C); assay type: in vivo, oval-leafed pondweed (Monochoria vaginalis); conditions: amount of applied herbicide 320 g/ha
How it was run: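 Alluvial soil was flooded to 4 cm depth, weed seeds were sown mixed and 2.5-leaf rice seedlings were transplanted. On sowing day, the compound's emulsion, diluted in water to a set dose, was applied to the water surface. Plants grew at 25–30 °C and were scored 0–5 after three weeks.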

lambsquarters [3] = assay: Test Example 4: herbicidal effect by soil treatment (Table 19, symbol O); assay type: in vivo, lambsquarters (Chenopodium album); conditions: amount of applied herbicide 320 g/ha
How it was run: as §3

wild oat = assay: Test Example 4: herbicidal effect by soil treatment (Table 19, symbol I); assay type: in vivo, wild oat (Avena fatua); conditions: amount of applied herbicide 320 g/ha
How it was run: as §3

chickweed [4] = assay: Test Example 4: herbicidal effect by soil treatment (Table 19, symbol P); assay type: in vivo, common chickweed (Stellaria media); conditions: amount of applied herbicide 320 g/ha
How it was run: as §3

chickweed [5] = assay: Test Example 5: herbicidal effect by foliage application, plastic box (Table 20, symbol P); assay type: in vivo, common chickweed (Stellaria media); conditions: foliage application, 320 g/ha, three weeks after application
How it was run: as §1

oval-leafed pondweed [6] = assay: Test Example 2: herbicidal activity, application during weed generation under submerged conditions (Table 17, symbol C); assay type: in vivo, oval-leafed pondweed (Monochoria vaginalis); conditions: AAH 320 g/ha; application during weed generation, submerged conditions
How it was run: as §2

false cleavers [7] = assay: Test Example 5: herbicidal effect by foliage application, plastic box (Table 20, symbol Q); assay type: in vivo, false cleavers (Galium spurium); conditions: foliage application, 320 g/ha, three weeks after application
How it was run: as §1

late watergrass = assay: Test Example 2: herbicidal activity, application during weed generation under submerged conditions (Table 17, symbol A); assay type: in vivo, late watergrass (Echinochloa oryzicola); conditions: AAH 320 g/ha; application during weed generation, submerged conditions
How it was run: as §2

false cleavers [8] = assay: Test Example 4: herbicidal effect by soil treatment (Table 19, symbol Q); assay type: in vivo, false cleavers (Galium spurium); conditions: amount of applied herbicide 320 g/ha
How it was run: as §3

Compound | herbicidal effect on D: Chinese sprangletop (Chinese sprangletop) | K: Italian ryegrass, herbicidal effect grade (Italian ryegrass) | herbicidal effect rating, B: Japanese bulrush (Japanese bulrush) | herbicidal effect, N: redroot pigweed (redroot pigweed) | R: persian speedwell, herbicidal effect grade (persian speedwell) | herbicidal effect, H: barnyard grass (barnyard grass) | O: lambsquarters, herbicidal effect grade (lambsquarters [1]) | herbicidal effect, J: blackgrass (blackgrass) | Herbicidal effect, C: oval-leafed pondweed (oval-leafed pondweed [2]) | herbicidal effect, O: lambsquarters (lambsquarters [3]) | herbicidal effect, I: wild oat (wild oat) | herbicidal effect, P: chickweed (chickweed [4]) | P: chickweed, herbicidal effect grade (chickweed [5]) | herbicidal effect rating, C: oval-leafed pondweed (oval-leafed pondweed [6]) | Q: false cleavers, herbicidal effect grade (false cleavers [7]) | herbicidal effect rating, A: late watergrass (late watergrass) | herbicidal effect, Q: false cleavers (false cleavers [8]) | N: redroot pigweed, herbicidal effect grade (redroot pigweed) | H: barnyard grass, herbicidal effect grade (barnyard grass) | J: blackgrass, herbicidal effect grade (blackgrass) | other results
CCCC(=O)Oc1c(C)nn(C)c(=O)c1-c1c(-c2ccc(F)cc2)sc2cc(F)ccc12 [3-002] | 0 (Herbicidal rate of 5% or less (almost no effect)) | 4 (Herbicidal rate of 70% or more and less than 90%) | 3 (Herbicidal rate of 40% or more and less than 70%) | 5 (Herbicidal rate of 90% or more (almost completely withered)) | 5 (Herbicidal rate of 90% or more (almost completely withered)) | 0 (Herbicidal rate of 5% or less (almost no effect)) | 3 (Herbicidal rate of 40% or more and less than 70%) | 0 (Herbicidal rate of 5% or less (almost no effect)) | 4 (Herbicidal rate of 70% or more and less than 90%) | 4 (Herbicidal rate of 70% or more and less than 90%) | 3 (Herbicidal rate of 40% or more and less than 70%) | 3 (Herbicidal rate of 40% or more and less than 70%) | 5 (Herbicidal rate of 90% or more (almost completely withered)) | 4 (Herbicidal rate of 70% or more and less than 90%) | 5 (Herbicidal rate of 90% or more (almost completely withered)) | 3 (Herbicidal rate of 40% or more and less than 70%) | 1 (Herbicidal rate of 5% or more and less than 20%) |  |  |  | 
CCCC(=O)Oc1c(C)nn(C)c(=O)c1-c1c(-c2ccc(F)cc2OC)sc2cc(F)ccc12 [3-010] | 0 (Herbicidal rate of 5% or less (almost no effect)) | 4 (Herbicidal rate of 70% or more and less than 90%) |  | 5 (Herbicidal rate of 90% or more (almost completely withered)) | 5 (Herbicidal rate of 90% or more (almost completely withered)) | 3 (Herbicidal rate of 40% or more and less than 70%) | 5 (Herbicidal rate of 90% or more (almost completely withered)) | 4 (Herbicidal rate of 70% or more and less than 90%) | 3 (Herbicidal rate of 40% or more and less than 70%) | 5 (Herbicidal rate of 90% or more (almost completely withered)) | 4 (Herbicidal rate of 70% or more and less than 90%) | 4 (Herbicidal rate of 70% or more and less than 90%) | 5 (Herbicidal rate of 90% or more (almost completely withered)) | 4 (Herbicidal rate of 70% or more and less than 90%) | 5 (Herbicidal rate of 90% or more (almost completely withered)) | 3 (Herbicidal rate of 40% or more and less than 70%) | 5 (Herbicidal rate of 90% or more (almost completely withered)) |  |  |  | 
CCCC(=O)Oc1c(C)nn(C)c(=O)c1-c1c(-c2ccc(OC)cc2)sc2cc(OCC)ccc12 [3-092] |  | 0 (Herbicidal rate of 5% or less (almost no effect)) | 1 (Herbicidal rate of 5% or more and less than 20%) |  | 5 (Herbicidal rate of 90% or more (almost completely withered)) |  | 4 (Herbicidal rate of 70% or more and less than 90%) |  | 3 (Herbicidal rate of 40% or more and less than 70%) |  |  |  | 5 (Herbicidal rate of 90% or more (almost completely withered)) | 3 (Herbicidal rate of 40% or more and less than 70%) | 4 (Herbicidal rate of 70% or more and less than 90%) | 0 (Herbicidal rate of 5% or less (almost no effect)) |  | 3 (Herbicidal rate of 40% or more and less than 70%) | 0 (Herbicidal rate of 5% or less (almost no effect)) | 0 (Herbicidal rate of 5% or less (almost no effect)) | O: lambsquarters, herbicidal effect grade (lambsquarters [3]): 4 (Herbicidal rate of 70% or more and less than 90%); I: wild oat, herbicidal effect grade (wild oat): 0 (Herbicidal rate of 5% or less (almost no effect)); P: chickweed, herbicidal effect grade (chickweed [4]): 5 (Herbicidal rate of 90% or more (almost completely withered)); Q: false cleavers, herbicidal effect grade (false cleavers [8]): 4 (Herbicidal rate of 70% or more and less than 90%)
Cc1nn(C)c(=O)c(-c2c(-c3ccc4c(c3)OCCO4)oc3ccccc23)c1O [8-002] |  |  | 4 (Herbicidal rate of 70% or more and less than 90%) |  |  |  |  |  | 4 (Herbicidal rate of 70% or more and less than 90%) |  |  |  |  | 5 (Herbicidal rate of 90% or more (almost completely withered)) |  | 3 (Herbicidal rate of 40% or more and less than 70%) |  | 2 (Herbicidal rate of 20% or more and less than 40%) | 3 (Herbicidal rate of 40% or more and less than 70%) | 0 (Herbicidal rate of 5% or less (almost no effect)) | Herbicidal effect on D (Chinese sprangletop), foliage application (Chinese sprangletop): 3 (Herbicidal rate of 40% or more and less than 70%); herbicidal effect on Italian ryegrass (K) (Italian ryegrass): 4 (Herbicidal rate of 70% or more and less than 90%); herbicidal effect on persian speedwell (R) (persian speedwell): 5 (Herbicidal rate of 90% or more (almost completely withered)); herbicidal effect on lambsquarters (O) (lambsquarters [1]): 0 (Herbicidal rate of 5% or less (almost no effect)); O: lambsquarters, herbicidal effect grade (lambsquarters [3]): 0 (Herbicidal rate of 5% or less (almost no effect)); I: wild oat, herbicidal effect grade (wild oat): 0 (Herbicidal rate of 5% or less (almost no effect)); P: chickweed, herbicidal effect grade (chickweed [4]): 5 (Herbicidal rate of 90% or more (almost completely withered)); herbicidal effect on false cleavers (Q) (false cleavers [7]): 0 (Herbicidal rate of 5% or less (almost no effect)); Q: false cleavers, herbicidal effect grade (false cleavers [8]): 0 (Herbicidal rate of 5% or less (almost no effect))
